Laboratory results: US20220248614A1, “METHOD FOR ELIMINATING PATHOGENS IN PLANT GROWING AND CORRESPONDING SYSTEM” (priority 2019, published 2022)
Entries after “also recorded” stand apart in the source; their conditions may differ.

What was measured:
cucumber powdery mildew = assay: Actual test, control of cucumber powdery mildew (April-May 2019); type: in vivo, Erysiphe sp.
Description: (§1) While the preliminary test was still underway, 20 cucumber seedlings were grown to the stage of a single leaf, the seedlings then being divided up into 5 boxes. The test groups were • 1. entirely untreated • 2. water spraying three times a week and watering of pot with ozone water for 3 and for 2 weeks before the conclusion of the test • 3. ozone spraying 3 three times a week • 4. ozone spraying 5 times a week at 7 a.m. and 4 p.m. • 5. ozone spraying 5 times a week at 7 a.m., 12 p.m. and 4 p.m.
The test area, in which mesh-bottomed pots were planted in peat with 4 pots in each box, was surrounded with the sick seedlings of the preliminary test, which were at a distance of approx. 60 cm from the test plants.

cucumber = assay: Tolerance of cucumber plants (leaves, roots) to ozone water; type: in vivo
Description: Mildewed cucumber leaves were collected from a garden adjacent to the research unit with which 6 outdoor cucumber seedlings were infected. After the verification of the manifestation of an infection, 18 new seedlings were grown up to the stage of the first plant leaf, at which point the plants were divided in onion boxes into 3 groups in the middle of each of which 2 ill plants were placed. The control plants were sprayed three times a week with water. The second test group was sprayed three times a day with ozone water (800 ppb) and the third test group was sprayed mornings and evenings. The sprayings were carried out with large droplets, which remained on the surface of the plant 2-4 hours. At night, the plants were covered with a monochrome plastic in order to maintain a high humidity. The sprayings took place over 6 weeks.
as §1

Fusarium oxysporum = Fusarium oxysporum test 1: fungal suspension in ozone water, plated on PDA; type: cell-based; settings: for culture colonies in the plate: 10 minutes
Description: A plateful of F. oxyxsporum fungus without agar was homogenized with 100 ml of water. 10 ml and 1 ml of the fungal suspension were added to 100 ml of sterile water and 100 ml of 800 ppb ozone water. After 10 minutes, the inoculums from each treatment were placed in 3 PDA plates.

[1] = system: Grey mould (Botrytis cinerea); assay: Grey mould test 1: spores rinsed from cabbage in ozone water, plated on PDA; type: cell-based; settings: taken from wet cabbage / grown at very high humidity
Description: Grey mould spores rinsed from cabbage were homogenized in approximately 200 ml of water. 10 ml and 1 ml of this fungal suspension were added to 100 ml of water and 100 ml of ozone water (800 ppb). After 10 and 60 minutes, specimens from each treatment were placed into 3 PDA plates.

[2] = system: Grey mould (Botrytis cinerea); assay: Grey mould test 2: almost dry old fungal growth rinsed into ozone water; type: cell-based
Description: A petri dish, (a CMA plate, in which cabbage discs stimulate the formation of conidia), comprising the almost dry old fungal growth and the endophytic bacteria from the cabbage therein), grey mould spores were rinsed into 100 ml of water. 1 and 10 ml of this water were pipetted into 100 ml of water and 100 ml of ozone water. 0.5 ml of each of these water mixtures was pipetted into 3 petri dishes in order to determine the vitality of the grey mould.

Pythium ultimum = Pythium ultimum test 1: fungal culture soaked with ozone water; type: cell-based
Description: In a first dish, a fungal culture was soaked for 30 minutes with sterile water when the Pythium fungus had grown to a distance of approx. 2 cm away from the small piece of inoculating agar at the rim of the dish, which was removed with a large cork borer before the water treatment. The fungus grew to fill the dish within 16 hours during the water treatment. In a second dish, an identical treatment with ozone water (800 ppb) was carried out. A thicker fungal mycelium was visible in the Pythium culture around the site of inoculation, from which the fungus only had time to grow 2 cm before the ozone treatment. The ozone destroyed the youngest tips of the hyphae of the fungus and the hyphae that had grown apart from the agar, but had no effect on hyphae that had already grown partially into the agar.

grey mould = assay: Grey mould test series on surfaces (wet versus dried fungus); type: cell-based, Botrytis cinerea; settings: ozone 2500 ppb in the air; grey mould washed from rotting cabbage, sprayed on cabbage, plastic, glass, redcurrant branch
Description: Grey mould turns out to be surprising against ozone. […] When test set-ups yielded the same result the following year, in which grey mould spores and the associated mycelium fragments washed from the surface of moist, rotting cabbage survived on a plastic surface in an ozone spray and in a concentrated ozone solution, it was completely clear that the surfaces of the mycelium and spores of grey mould are completely resistant to ozone. […] In nature, grey mould survives until the following year on the surfaces of rotten plants such as berries and succulent leaves, where they form conidia in conidiophores in moist conditions. In wet conditions, the spores hardly spread with the wind; however, once dried by the sun, the spores of the growth break free to be carried a distance of at least 50 metres by the wind if the wind speed exceeds 2 m/s. Dried mycelium and conidiophores are readily identifiable under a microscope by their structure compared with completely turgid growths.

powdery mildew = assay: Control of powdery mildew infection by gaseous ozone or ozone solution; type: in vivo; settings: ozone in gaseous form, constant exposure
Description: The spores of powdery mildew have an exceptionally high moisture content compared to the spores of other fungal diseases, which is why merely a very high air humidity suffices for a spore infection, yet the conidium is destroyed quickly when engulfed by a water droplet. The spores of the fungus spread during the day and make the plant ill at night. Depending on the species of the powdery mildew, the infection stage takes 6-12 hours. […] Using this knowledge, it is possible to construct technical applications for implementation in greenhouses as well as outdoors for the control of powdery mildew disease infections. Based on this solution, many other plant pests which spread first to the surfaces of the plants as dry spores that have acclimated to the shining of the sun during their evolution (for example grey mould) can also be controlled.

crops = settings: 80-100 ppb in the air; cited from earlier work

O=[O+][O-] [ozone]
sensitivity of spores (conidia) of powdery mildew (cucumber powdery mildew; in vivo): extremely sensitive | survival of powdery mildew mycelium growing on the surface of the plant (cucumber powdery mildew; ozone concentration of the spraying 340 ppb): survives | state of roots compared with the untreated test group (cucumber; actual test): undamaged | damage to the leaves of the plants (cucumber; actual test, ozone sprayings, any stage): did not damage the leaves | impact on development of fresh weight (cucumber; actual test, watering of the roots with ozone water): did not have an impact | damage to the root system of cucumber or weakening of the plant (cucumber; approximately 800 ppb in the water, stem bottoms watered twice a week, evaluated a week after last treatment, preliminary tests): did not cause any damage | culture colonies in the plate (Fusarium oxysporum; 1 ml of inoculum in 100 ml of 800 ppb ozone water): 1-3 colonies | culture colonies in the plate (Fusarium oxysporum; 10 ml of inoculum in 100 ml of 800 ppb ozone water): 8-17 colonies | sensitivity of spores (conidia) and mycelium of Fusarium fungus (Fusarium oxysporum; in a solution and in sprays on surfaces of dry materials): completely sensitive | sensitivity of grey mould mycelium and spores grown wet [1]: ozone-resistant; also recorded: completely tolerant | sensitivity of dried grey mould mycelium and spores [2]: sensitive | sensitivity of Pythium fungus (mycelium, zoospores) (Pythium ultimum): sensitive | killing of spores and mycelium of grey mould (grey mould): not able to kill off | effect on powdery mildew infection (powdery mildew): satisfactory effect | effect of constant exposure on leaves (crops): causes chlorosis in leaves
